Source: the supplement of paper PMC10307832

Tests used:
Experiment in all cases: relative viability (nuclei count vs DMSO), 5 days (fraction); higher = more cells survive
NCI-H1666 = system: NCI-H1666
In short: (§1)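 Lung cancer cell lines in 1536-well plates got either a single drug or a fixed anchor-drug dose together with five library-drug doses (not always all listed) in √10 steps, by pin tool, on the day after seeding. Nuclei were counted after 5 days, and relative viability is the treated-to-vehicle ratio of nuclei counts. Values are medians of duplicate plates.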

NCI-H1915 = system: NCI-H1915
In short: as §1

NCI-H1755 = system: NCI-H1755
In short: as §1

A-427 = system: A-427
In short: as §1

NCI-H2170 = system: NCI-H2170
In short: as §1

NCI-H2023 = system: NCI-H2023
In short: as §1

BEN = system: BEN
In short: as §1

NCI-H460 = system: NCI-H460
In short: as §1

NCI-H1395 = system: NCI-H1395
In short: as §1

LCLC-97TM1 = system: LCLC-97TM1
In short: as §1

NCI-H1944 = system: NCI-H1944
In short: as §1

SK-LU-1 = system: SK-LU-1
In short: as §1

NCI-H1793 = system: NCI-H1793
In short: as §1

NCI-H650 = system: NCI-H650
In short: as §1

LU99A = system: LU99A
In short: as §1

LXF-289 = system: LXF-289
In short: as §1

NCI-H2126 = system: NCI-H2126
In short: as §1

PC-3 [JPC-3] = system: PC-3 [JPC-3]
In short: as §1

HARA = system: HARA
In short: as §1

NCI-H23 = system: NCI-H23
In short: as §1

LOU-NH91 = system: LOU-NH91
In short: as §1

NCI-H441 = system: NCI-H441
In short: as §1

NCI-H322M = system: NCI-H322M
In short: as §1

SMILES: O=C(O)CCCCC(CCSCc1ccccc1)SCc1ccccc1 (centres undefined) [CPI-613] + O=C(CCCCCCC(=O)Nc1ccccc1)NO [Vorinostat] (partner 1 µM)
- relative viability (NCI-H1666; first compound 5 µM): 1.07
- relative viability (NCI-H1666; first compound 15.81 µM): 1.01
- relative viability (NCI-H1666; first compound 50 µM): 1.01
- relative viability (NCI-H1666; first compound 158.11 µM): 0.542
- relative viability (NCI-H1666; first compound 500 µM): 0.417
- relative viability (NCI-H1915; first compound 5 µM): 0.502
- relative viability (NCI-H1915; first compound 15.81 µM): 0.54
- relative viability (NCI-H1915; first compound 50 µM): 0.488
- relative viability (NCI-H1915; first compound 158.11 µM): 0.467
- relative viability (NCI-H1915; first compound 500 µM): 0.0403
- relative viability (NCI-H1755; first compound 5 µM): 0.736
- relative viability (NCI-H1755; first compound 15.81 µM): 0.707
- relative viability (NCI-H1755; first compound 50 µM): 0.675
- relative viability (NCI-H1755; first compound 158.11 µM): 0.577
- relative viability (NCI-H1755; first compound 500 µM): 0.608
- relative viability (A-427; first compound 5 µM): 0.884
- relative viability (A-427; first compound 15.81 µM): 0.822
- relative viability (A-427; first compound 50 µM): 0.827
- relative viability (A-427; first compound 158.11 µM): 0.726
- relative viability (A-427; first compound 500 µM): 0.492
- relative viability (NCI-H2170; first compound 5 µM): 0.723
- relative viability (NCI-H2170; first compound 15.81 µM): 0.783
- relative viability (NCI-H2170; first compound 50 µM): 0.774
- relative viability (NCI-H2170; first compound 158.11 µM): 0.541
- relative viability (NCI-H2170; first compound 500 µM): 0.31
- relative viability (NCI-H2023; first compound 5 µM): 0.537
- relative viability (NCI-H2023; first compound 15.81 µM): 0.475
- relative viability (NCI-H2023; first compound 50 µM): 0.572
- relative viability (NCI-H2023; first compound 158.11 µM): 0.0274
- relative viability (NCI-H2023; first compound 500 µM): 0.007
- relative viability (BEN; first compound 5 µM): 0.491
- relative viability (BEN; first compound 15.81 µM): 0.529
- relative viability (BEN; first compound 50 µM): 0.558
- relative viability (BEN; first compound 158.11 µM): 0.593
- relative viability (BEN; first compound 500 µM): 0.607
- relative viability (NCI-H460; first compound 5 µM): 0.698
- relative viability (NCI-H460; first compound 15.81 µM): 0.553
- relative viability (NCI-H460; first compound 50 µM): 0.718
- relative viability (NCI-H460; first compound 158.11 µM): 0.0356
- relative viability (NCI-H460; first compound 500 µM): 0.008
- relative viability (NCI-H1395; first compound 5 µM): 0.792
- relative viability (NCI-H1395; first compound 15.81 µM): 0.613
- relative viability (NCI-H1395; first compound 50 µM): 0.871
- relative viability (NCI-H1395; first compound 158.11 µM): 0.653
- relative viability (NCI-H1395; first compound 500 µM): 0.745
- relative viability (LCLC-97TM1; first compound 5 µM): 0.479
- relative viability (LCLC-97TM1; first compound 15.81 µM): 0.492
- relative viability (LCLC-97TM1; first compound 50 µM): 0.769
- relative viability (LCLC-97TM1; first compound 158.11 µM): 0.331
- relative viability (LCLC-97TM1; first compound 500 µM): 0.0868
- relative viability (NCI-H1944; first compound 5 µM): 0.572
- relative viability (NCI-H1944; first compound 15.81 µM): 0.574
- relative viability (NCI-H1944; first compound 50 µM): 0.496
- relative viability (NCI-H1944; first compound 158.11 µM): 0.322
- relative viability (NCI-H1944; first compound 500 µM): 0.273
- relative viability (SK-LU-1; first compound 5 µM): 0.773
- relative viability (SK-LU-1; first compound 15.81 µM): 0.65
- relative viability (SK-LU-1; first compound 50 µM): 0.648
- relative viability (SK-LU-1; first compound 158.11 µM): 0.206
- relative viability (SK-LU-1; first compound 500 µM): 0.11
- relative viability (NCI-H1793; first compound 5 µM): 0.781
- relative viability (NCI-H1793; first compound 15.81 µM): 0.559
- relative viability (NCI-H1793; first compound 50 µM): 0.754
- relative viability (NCI-H1793; first compound 158.11 µM): 0.424
- relative viability (NCI-H1793; first compound 500 µM): 0.0086
- relative viability (NCI-H650; first compound 5 µM): 0.447
- relative viability (NCI-H650; first compound 15.81 µM): 0.365
- relative viability (NCI-H650; first compound 50 µM): 0.301
- relative viability (NCI-H650; first compound 158.11 µM): 0.297
- relative viability (NCI-H650; first compound 500 µM): 0.414
- relative viability (LU99A; first compound 5 µM): 0.474
- relative viability (LU99A; first compound 15.81 µM): 0.408
- relative viability (LU99A; first compound 50 µM): 0.466
- relative viability (LU99A; first compound 158.11 µM): 0.394
- relative viability (LU99A; first compound 500 µM): 0.223
- relative viability (LXF-289; first compound 5 µM): 0.699
- relative viability (LXF-289; first compound 15.81 µM): 0.707
- relative viability (LXF-289; first compound 50 µM): 0.722
- relative viability (LXF-289; first compound 158.11 µM): 0.483
- relative viability (LXF-289; first compound 500 µM): 0.567
- relative viability (NCI-H2126; first compound 5 µM): 0.743
- relative viability (NCI-H2126; first compound 15.81 µM): 0.68
- relative viability (NCI-H2126; first compound 50 µM): 0.831
- relative viability (NCI-H2126; first compound 158.11 µM): 0.342
- relative viability (NCI-H2126; first compound 500 µM): 0.179
- relative viability (PC-3 [JPC-3]; first compound 5 µM): 0.83
- relative viability (PC-3 [JPC-3]; first compound 50 µM): 0.738
- relative viability (PC-3 [JPC-3]; first compound 158.11 µM): 0.623
- relative viability (PC-3 [JPC-3]; first compound 500 µM): 0.389
- relative viability (HARA; first compound 5 µM): 0.479
- relative viability (HARA; first compound 15.81 µM): 0.529
- relative viability (HARA; first compound 50 µM): 0.506
- relative viability (HARA; first compound 158.11 µM): 0.0931
- relative viability (HARA; first compound 500 µM): 0.024
- relative viability (NCI-H23; first compound 5 µM): 0.612
- relative viability (NCI-H23; first compound 15.81 µM): 0.586
- relative viability (NCI-H23; first compound 50 µM): 0.591
- relative viability (NCI-H23; first compound 158.11 µM): 0.168
- relative viability (NCI-H23; first compound 500 µM): 0.0015
- relative viability (LOU-NH91; first compound 5 µM): 0.891
- relative viability (LOU-NH91; first compound 15.81 µM): 0.844
- relative viability (LOU-NH91; first compound 50 µM): 0.871
- relative viability (LOU-NH91; first compound 158.11 µM): 0.837
- relative viability (LOU-NH91; first compound 500 µM): 0.622
- relative viability (NCI-H441; first compound 5 µM): 0.656
- relative viability (NCI-H441; first compound 15.81 µM): 0.789
- relative viability (NCI-H441; first compound 50 µM): 0.717
- relative viability (NCI-H441; first compound 158.11 µM): 0.437
- relative viability (NCI-H441; first compound 500 µM): 0.0026
- relative viability (NCI-H322M; first compound 5 µM): 0.809
- relative viability (NCI-H322M; first compound 15.81 µM): 0.722
- relative viability (NCI-H322M; first compound 50 µM): 0.777
- relative viability (NCI-H322M; first compound 158.11 µM): 0.703
- relative viability (NCI-H322M; first compound 500 µM): 0.161
